Assay results reported in paper PMC10228259 (Nature, 2023).
Like-named read-outs stand apart in the source and are kept apart here.

Key:
[1] = biological target: T1, chemotactile receptor for terpenes 1 (CRT1, previously CR518) (Octopus bimaculoides, UniProt A0A0L8FVQ9); test: cryo-EM structure at […] Å; type: cell-based
T1 sequence (A0A0L8FVQ9 21-399): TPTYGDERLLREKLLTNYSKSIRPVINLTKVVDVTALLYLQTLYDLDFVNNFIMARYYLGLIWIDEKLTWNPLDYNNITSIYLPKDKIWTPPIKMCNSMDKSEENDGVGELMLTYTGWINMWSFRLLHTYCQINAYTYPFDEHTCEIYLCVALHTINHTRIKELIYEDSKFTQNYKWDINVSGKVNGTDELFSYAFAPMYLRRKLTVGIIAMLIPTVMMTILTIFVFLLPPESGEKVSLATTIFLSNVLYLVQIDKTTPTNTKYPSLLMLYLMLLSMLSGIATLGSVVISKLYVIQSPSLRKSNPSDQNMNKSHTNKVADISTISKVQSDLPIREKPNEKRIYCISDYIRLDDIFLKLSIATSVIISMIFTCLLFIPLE

[2] = biological target: T2, chemotactile receptor for terpenes 1 (CRT1) (Octopus bimaculoides, UniProt A0A0L8FVQ9); test: patch clamp dose-response in HEK […] cells expressing CRT1; type: cell-based
T2 sequence (A0A0L8FVQ9 21-399): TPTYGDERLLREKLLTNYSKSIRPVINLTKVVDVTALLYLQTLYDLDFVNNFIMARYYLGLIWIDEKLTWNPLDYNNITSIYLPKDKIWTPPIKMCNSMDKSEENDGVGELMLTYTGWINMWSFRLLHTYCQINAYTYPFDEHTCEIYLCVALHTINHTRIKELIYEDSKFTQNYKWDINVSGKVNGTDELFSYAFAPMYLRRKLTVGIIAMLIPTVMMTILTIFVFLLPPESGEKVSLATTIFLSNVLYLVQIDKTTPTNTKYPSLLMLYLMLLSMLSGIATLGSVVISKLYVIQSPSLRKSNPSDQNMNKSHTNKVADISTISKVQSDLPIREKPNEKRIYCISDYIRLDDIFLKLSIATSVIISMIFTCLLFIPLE

[3] = biological target: T2, chemotactile receptor for terpenes 1 (CRT1); test: as above; type: cell-based; remark: listed apart in the source
cryo-EM structure = biological target: the molecule itself; test: cryo-EM structure

Which EC50 [1] does the source give for `C[C@@H]1CC[C@@]2(OC1)O[C@H]1C[C@H]3[C@@H]4CC=C5C[C@@H](OCCC(CO[C@@H]6O[C@H](CO)[C@@H](O[C@H]7O[C@H](CO)[C@@H](O)[C@H](O)[C@H]7O)[C@H](O)[C@H]6O)CO[C@@H]6O[C@H](CO)[C@@H](O[C@H]7O[C@H](CO)[C@@H](O)[C@H](O)[C@H]7O)[C@H](O)[C@H]6O)CC[C@]5(C)[C@H]4CC[C@]3(C)[C@H]1[C@@H]2C` [GDN, glyco-diosgenin] here?
Its EC50 is 0.125 µM.

How did the EC50 [2] turn out when `C=C(C)[C@@H]1CCC2=CC(=O)C[C@@H](C)[C@]2(C)C1` [nootkatone] was run?
Its EC50 is 16.1 µM.

How did the EC50 [3] turn out when `C[C@H]1CCCC(=O)CCC/C=C/c2cc(O)cc(O)c2C(=O)O1` [zearalenone] was run?
The EC50 was 4.8 µM.

B1: chemotactile receptor for terpenes 1 (CRT1) (receptor, Octopus bimaculoides, UniProt A0A0L8FVQ9 21-399, looked up)
chain: TPTYGDERLLREKLLTNYSKSIRPVINLTKVVDVTALLYLQTLYDLDFVNNFIMARYYLGLIWIDEKLTWNPLDYNNITSIYLPKDKIWTPPIKMCNSMDKSEENDGVGELMLTYTGWINMWSFRLLHTYCQINAYTYPFDEHTCEIYLCVALHTINHTRIKELIYEDSKFTQNYKWDINVSGKVNGTDELFSYAFAPMYLRRKLTVGIIAMLIPTVMMTILTIFVFLLPPESGEKVSLATTIFLSNVLYLVQIDKTTPTNTKYPSLLMLYLMLLSMLSGIATLGSVVISKLYVIQSPSLRKSNPSDQNMNKSHTNKVADISTISKVQSDLPIREKPNEKRIYCISDYIRLDDIFLKLSIATSVIISMIFTCLLFIPLE
modifications: N-linked glycans
Which “stoichiometry N” value (cryo-EM structure) does the source give for B1 here?
The value was 5.
